Laboratory results reported in patent US20170045513A1, “METHODS OF DIAGNOSING CELIAC DISEASE USING IP-10” (ImmusanT, Inc., priority 2014, published 2017).
Non-standard residues stand in square brackets, D forms with d. pGlu = O=C1CC[C@@H](C(=O)O)N1

Tested on: gluten-reactive T cells
Assay: Cytokine release assays taken together (IFNγ ELISpot, whole blood IFNγ and IP-10, in-tube IFNγ ELISA)
Format: cell-based, human
Outline: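 Whole blood with peptides (P3 0.05-50 μg/mL; P13/P14 0.025-25 μM; […]), 24 h, 37 °C; plasma IFNγ/IP-10 by multiplex beads. Tube assay: 1 mL blood with P3 or CEF, 24 h, plasma IFNγ ELISA; elevated if >7.2 pg/mL above medium tube and SI >1.25. ELISpot overnight on fresh PBMC.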

Substance	activity relative to Peptide 14 in the cytokine release assays (blood collected after oral gluten challenge)	cytokine release / immunogenicity of individual peptide (HLA-DQ2.5+ celiac disease subjects after gluten challenge)
(pE)QPYPQPELPYPQPQ-amide ([pGlu]QPYPQPELPYPQPQ-NH2; SMILES CC(C)C[C@H](NC(=O)[C@H](CCC(=O)O)NC(=O)[C@@H]1CCCN1C(=O)[C@H](CCC(N)=O)NC(=O)[C@@H]1CCCN1C(=O)[C@H](Cc1ccc(O)cc1)NC(=O)[C@@H]1CCCN1C(=O)[C@H](CCC(N)=O)NC(=O)[C@@H]1CCC(=O)N1)C(=O)N1CCC[C@H]1C(=O)N[C@@H](Cc1ccc(O)cc1)C(=O)N1CCC[C@H]1C(=O)N[C@@H](CCC(N)=O)C(=O)N1CCC[C@H]1C(=O)N[C@@H](CCC(N)=O)C(N)=O) [Peptide 15]	no more than two-thirds as active as Peptide 14	
(pE)SGEGSFQPSQENPQ-amide ([pGlu]SGEGSFQPSQENPQ-NH2; SMILES NC(=O)CC[C@H](NC(=O)[C@@H]1CCCN1C(=O)[C@H](CC(N)=O)NC(=O)[C@H](CCC(=O)O)NC(=O)[C@H](CCC(N)=O)NC(=O)[C@H](CO)NC(=O)[C@@H]1CCCN1C(=O)[C@H](CCC(N)=O)NC(=O)[C@H](Cc1ccccc1)NC(=O)[C@H](CO)NC(=O)CNC(=O)[C@H](CCC(=O)O)NC(=O)CNC(=O)[C@H](CO)NC(=O)[C@@H]1CCC(=O)N1)C(N)=O) [Peptide 9]		weak or not distinguishable from medium alone
